Series [1] in a line: MemTox membrane leakage (AK / α-GST). Particulars: rat. The class given is cell-based, rat. As for the experimental part:
(§1) One test compound (Compound A) was received as dry powder and evaluated for potential cytotoxicity in a battery of in vitro assays. The compound was tested using both rat cardiomyocytes (CM) from rat neonates and a rat hepatoma (H4IIE) cell line. […] The cell supernatant or the cells themselves were harvested for biochemical analysis. General cytotoxicity was evaluated by monitoring membrane integrity, mitochondrial function, cell proliferation, oxidative stress, and apoptosis. In addition, interaction with P-glycoprotein (PgP) on H4IIE cells and solubility of the test compound were also assessed. The means of each exposure group (n=3-7) were calculated for each assay performed.
(§2) Experimental Protocol: The test compound was provided and stored at 4° C. until needed. Dosing solutions were prepared in complete culture medium. The rat hepatoma (H4IIE) cell line was used as the test system.
Membrane Leakage (α-Glutathione S-transferase and/or Adenylate Kinase): The presence of Adenylate Kinase (AK) or α-Glutathione S-transferase (α-GST), both enzyme leakage markers, was measured in the culture medium using an activity assay for Adenylate Kinase and/or an ELISA assay for α-GST. At the end of the exposure period, the medium covering the cells in each well was removed and placed into new 96-well plates with appropriate labeling. […] Luminescence (AK) values were measured with a Packard Fusion or equivalent plate reader, and absorbance (α-GST) values were measured with a Packard SpectraCount™ or equivalent reader at 450 nm and reference absorbance at 650 nm.
Membrane Leakage (α-Glutathione S-transferase and/or Adenylate Kinase): Leakage of Adenylate Kinase or α-GST from the cell into the culture medium was determined by collecting the culture medium at the end of the exposure period. Thus, the values measured represent total enzyme leakage lost over the exposure period. The control for 100% dead or maximum enzyme release was based on cells treated with 1 mM digitonin at the time of dosing. Percent dead cells relative to digitonin treated cells was determined and then subtracted from 100% to yield the percent live cells.

The nature of series [2]: Intracellular ATP levels. The class given is cell-based, rat. Particulars: rat. As to the method:
as §1, §2
Intracellular ATP Levels: Cellular Adenosine triphosphate (ATP) was determined with an assay based on a reaction between ATP+D-luciferin+oxygen catalyzed by luciferase to yield Oxyluciferin+AMP+PPi+CO2+light. The emitted light is proportional to the amount of ATP present. […] In addition, a unique cell lysis reagent inhibits endogenous ATPases and therefore stabilizes cellular ATP by preventing its degradation to ADP. ATP is present in all-living cells and declines rapidly upon cell death. In addition, this assay in combination with the MTT assay provides an indicator of mitochondrial activity and energy status of the cell.
Plates were analyzed immediately or stored at −20° C. until needed. On the day of analysis, the plates were thawed and calibration curve prepared with ATP in the same liquid matrix as samples. ATP was quantified by adding ATP substrate solution and then reading luminescence on a Packard Fusion Luminescence or equivalent plate reader.
Intracellular ATP Levels: ATP levels in treated cells could be determined by using the regression coefficients obtained from the linear regression analysis of the calibration curve. Thus, values could be expressed as pmoles ATP/million cells. Background corrected luminescence was used to determine percent change relative to controls by dividing treated values by control values and multiplying by 100.

Series [3] has as its system rat cardiomyocytes. In words: Caspase 3 activity (apoptosis). The class given is cell-based. As to the method:
as §1
(§3) Caspase 3 Procedure: Caspase 3 activity was determined using a caspase substrate (DEVD, Asp-Glu-Val-Asp) labeled with a fluorescent molecule, 7-Amino4-methylcoumarin (AMC). Caspase 3 cleaves the tetrapeptide between D and AMC, thus releasing the fluorogenic […] AMC. Following the test article exposure to cells in 96-well plates, medium was aspirated from plates and PBS added to each well. Plates were stored at −80° C. to lyse cells and store samples until further analysis. On the day of analysis, plates were removed from freezer and thawed. Caspase buffer with fluorescent substrate was added to each well and incubated at room temperature for 1 hr. AMC release was measured in a spectrofluorometer at an excitation wavelength of 360 nm and an emission wavelength of 460 nm. Values are expressed as relative fluorescent units (RFU).
(§4) Caspase Activity: After sample plates were completely thawed, the caspase substrate buffer mix was added to each plate. Plates were incubated at room temperature for 1hr, shielded from light. Plates were read using a in a spectrofluorometer at an excitation wavelength of 360 nm and an emission wavelength of 460 nm. Values were expressed as relative fluorescent units (RFU).
(§5) The key to the maximal response data can be found below Table 2.

Series [4] deals with H4IIE cells. Description: Caspase 3 activity (apoptosis). The format is cell-based, rat. As to the method:
as §1, §2, §3, §4, §5

Setting [5] is: H4IIE rat hepatoma cells, H4IIE, 24 HR exposure, read-out: MemTox TC50.
[6] abbreviates: H4IIE, 24 HR, exposure concentration that produced the response (μM series).
Where [7] appears, read: H4IIE rat hepatoma cells, H4IIE, 24 HR exposure, read-out: ATP TC50.

For `Nc1nc(NC2CC2)c2ncn([C@H]3C=C[C@@H](CO)C3)c2n1` [ABACAVIR, abacavir], the CC50 at 24 h in series [1] (MemTox TC50) was > 300 µM; in series [2] (ATP TC50), 154 µM.

Consider `CC[C@@]1(O)C(=O)OCc2c1cc1n(c2=O)Cc2cc3ccccc3nc2-1` [CAMPTOTHECIN, Camptothecin], for which the CC50 at 24 h in series [1] (setting [5]) was > 300 µM; in series [2] (setting [7]), 1 µM. The “Caspase 3 Activity (Index/Dose): Index” value in series [3] (CM, 24 HR) is 6 (1000-1200 = 6); in series [4] (H4IIE, 24 HR), 5 (800-1000 = 5). The “Caspase 3 Activity (Index/Dose): Dose” value in series [3] (CM, 24 HR, exposure concentration that produced the response (μM series)) is reported as 300; in series [4] (setting [6]) it was 100.

In the case of `Cc1cccc(C)c1OCC(=O)N[C@@H](Cc1ccccc1)[C@@H](O)C[C@H](Cc1ccccc1)NC(=O)[C@H](C(C)C)N1CCCNC1=O` [LOPINAVIR, lopinavir], the results for the CC50 at 24 h in series [1] (MemTox TC50) and in series [2] (ATP TC50) were > 300 µM and 195 µM, respectively. Also, the “Caspase 3 Activity (Index/Dose): Dose” value in series [3] (rat, 24 h) was 100; in series [4] (rat, 24 h) it was 300.

Take `COc1cccc2c1C(=O)c1c(O)c3c(c(O)c1C2=O)C[C@@](O)(C(C)=O)C[C@@H]3O[C@H]1C[C@H](N)[C@H](O)[C@H](C)O1` [DAUNORUBICIN, daunorubicin]: the figures for the CC50 at 24 h in series [1] and in series [2] were 41 µM and 7 µM, respectively.

For `CC(C)Nc1cccnc1N1CCN(C(=O)c2cc3cc(NS(C)(=O)=O)ccc3[nH]2)CC1` [DELAVIRDINE, delavirdine], the CC50 at 24 h in series [1] (MemTox TC50) was > 300 µM; in series [2] (ATP TC50) it was 257 µM. The “Caspase 3 Activity (Index/Dose): Dose” value in series [3] (rat, 24 h) was 100.

`O=C1Nc2ccc(Cl)cc2[C@@](C#CC2CC2)(C(F)(F)F)O1` [EFAVIRENZ, efavirenz]: the CC50 at 24 h amounted to 181 µM in series [1] (MemTox TC50) and 162 µM in series [2] (ATP TC50).

For `C=C(C)[C@H]1Cc2c(ccc3c2O[C@@H]2COc4cc(OC)c(OC)cc4[C@@H]2C3=O)O1` [ROTENONE, Rotenone], the CC50 at 24 h in series [1] (H4IIE, 24 HR exposure, read-out: MemTox TC50) is 100 µM; in series [2] (H4IIE, 24 HR exposure, read-out: ATP TC50), 0.04 µM.

Turning to `COc1cccc2c1C(=O)c1c(O)c3c(c(O)c1C2=O)C[C@@](O)(C(=O)CO)C[C@@H]3O[C@H]1C[C@H](N)[C@@H](O)[C@H](C)O1` [EPIRUBICIN, epirubicin], the CC50 at 24 h was determined as 37 µM in series [1] (MemTox TC50) and 32 µM in series [2] (ATP TC50). For the same compound, the “Caspase 3 Activity (Index/Dose): Dose” value in series [3] (rat, 24 h) came to 20; in series [4] (rat, 24 h), 50.

Consider `CC(=O)[C@]1(O)Cc2c(O)c3c(c(O)c2[C@@H](O[C@H]2C[C@H](N)[C@H](O)[C@H](C)O2)C1)C(=O)c1ccccc1C3=O` [IDARUBICIN, idarubicin], for which the CC50 at 24 h in series [1] (MemTox TC50) was 30 µM; in series [2] (ATP TC50) it was 2 µM.

As for `COc1cccc2c1C(=O)c1c(O)c3c(c(O)c1C2=O)C[C@@](O)(C(=O)CO)C[C@@H]3O[C@H]1C[C@H](N)[C@H](O[C@@H]2CCCCO2)[C@H](C)O1` [PIRARUBICIN, pirarubicin], the CC50 at 24 h in series [1] (setting [5]) was found to be 50 µM; in series [2] (setting [7]), 8 µM. The “Caspase 3 Activity (Index/Dose): Index” value in series [4] (H4IIE, 24 HR) is 8 (1400-1600 = 8). In addition, the “Caspase 3 Activity (Index/Dose): Dose” value in series [4] (setting [6]) was 10 (1800-2000 = 10).

On to `O=C1c2c(O)ccc(O)c2C(=O)c2c(NCCNCCO)ccc(NCCNCCO)c21` [MITOXANTRONE, mitoxantrone], for which the CC50 at 24 h in series [1] (MemTox TC50) is > 300 µM; in series [2] (ATP TC50), 5 µM.

The record behind these values is patent US7615361B2, “Toxicity screening methods” (Ceetox, Inc., priority 2006, dated 2009).
